In this test the target is ROCK2 (UniProt O75116). Put plainly: Inhibition of ROCK2 Kinase Activity.
Sequence of ROCK2 (O75116 whole entry, looked up): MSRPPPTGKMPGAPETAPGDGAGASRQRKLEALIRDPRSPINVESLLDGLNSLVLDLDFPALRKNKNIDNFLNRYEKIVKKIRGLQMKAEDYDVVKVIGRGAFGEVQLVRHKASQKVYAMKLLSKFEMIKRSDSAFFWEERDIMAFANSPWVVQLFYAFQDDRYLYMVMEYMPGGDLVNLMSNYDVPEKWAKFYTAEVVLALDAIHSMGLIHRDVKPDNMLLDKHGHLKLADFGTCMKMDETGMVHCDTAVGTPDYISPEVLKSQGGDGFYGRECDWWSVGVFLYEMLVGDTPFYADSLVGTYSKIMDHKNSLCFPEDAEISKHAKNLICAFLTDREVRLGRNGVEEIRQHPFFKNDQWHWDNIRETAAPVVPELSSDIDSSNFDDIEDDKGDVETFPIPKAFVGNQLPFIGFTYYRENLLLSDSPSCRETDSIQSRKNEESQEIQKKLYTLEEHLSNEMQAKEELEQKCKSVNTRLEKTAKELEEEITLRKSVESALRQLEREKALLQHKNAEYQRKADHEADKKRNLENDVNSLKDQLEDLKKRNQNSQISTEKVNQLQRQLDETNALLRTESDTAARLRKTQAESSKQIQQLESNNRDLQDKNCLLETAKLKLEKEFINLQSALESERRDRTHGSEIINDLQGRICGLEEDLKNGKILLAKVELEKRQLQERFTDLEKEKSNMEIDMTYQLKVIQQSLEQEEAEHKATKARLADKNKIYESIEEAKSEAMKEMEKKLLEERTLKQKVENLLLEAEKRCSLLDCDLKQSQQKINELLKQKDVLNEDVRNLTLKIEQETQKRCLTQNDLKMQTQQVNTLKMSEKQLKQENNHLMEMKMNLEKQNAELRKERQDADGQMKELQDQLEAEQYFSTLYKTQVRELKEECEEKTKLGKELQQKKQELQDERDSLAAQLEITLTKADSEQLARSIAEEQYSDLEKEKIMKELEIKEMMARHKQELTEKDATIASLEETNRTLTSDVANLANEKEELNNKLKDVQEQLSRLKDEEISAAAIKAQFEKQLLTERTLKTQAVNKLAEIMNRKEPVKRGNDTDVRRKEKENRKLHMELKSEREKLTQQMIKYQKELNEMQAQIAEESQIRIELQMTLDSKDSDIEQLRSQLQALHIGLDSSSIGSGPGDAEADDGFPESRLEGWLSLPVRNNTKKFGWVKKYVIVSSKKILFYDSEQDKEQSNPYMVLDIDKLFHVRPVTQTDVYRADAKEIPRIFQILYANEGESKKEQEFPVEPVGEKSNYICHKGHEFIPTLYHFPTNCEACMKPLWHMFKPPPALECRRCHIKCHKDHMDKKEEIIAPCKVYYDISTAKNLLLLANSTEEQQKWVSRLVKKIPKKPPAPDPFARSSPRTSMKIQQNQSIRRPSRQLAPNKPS

As to `CC(O)c1c(-c2ccc(C(C)(C)N)cc2)ccc2[nH]ncc12` (stereo not drawn), the Ki (in general, a measure of affinity in units of concentration, obtained from inhibition or displacement) came out at 294 nM.
The figure for `NCc1ccc(-c2ccc3[nH]ncc3c2N)cc1` is 61 nM; for `CC(C)(N)c1ccc(-c2ccc3[nH]ncc3c2N2CCCC2)cc1` it is 14 nM; for `CC(C)(N)c1ccc(-c2ccc3[nH]ncc3c2-c2cn[nH]c2)nc1` it is 56 nM.
In turn, `COc1c(-c2ccc(C(C)(C)N)cn2)ccc2[nH]ncc12` gave a Ki of 27 nM.
As for `CC(C)(N)c1ccc(-c2ccc3[nH]ncc3c2CCO)cc1`, the figure is 47 nM; as for `CC(C)(N)c1ccc(-c2ccc3[nH]ncc3c2[N+](=O)[O-])cc1`, 28 nM; as for `CC(C)(N)c1ccc(-c2ccc3[nH]ncc3c2-c2cc[nH]n2)cc1`, 11 nM.
As for `CCOc1c(-c2ccc(C(C)(C)N)cc2)ccc2[nH]ncc12`, the Ki turned out to be 17 nM.
As for `CC(C)(N)c1ccc(-c2ccc3[nH]ncc3c2OC(F)F)cc1`, the figure is 3.6 nM.
As for `CC(C)Oc1c(-c2ccc(C(C)(C)N)cc2)ccc2[nH]ncc12`, the figure is 33 nM.
As for `CCC(N)(CC)c1ccc(-c2ccc3[nH]ncc3c2N)cc1`, the figure is 38 nM.
In turn, `CC(C)(N)c1ccc(-c2ccc3[nH]nc(CO)c3c2)cc1` returned a Ki of 142 nM.
As for `CC(C)(N)c1ccc(-c2ccc3[nH]ncc3c2OCC(F)(F)F)cc1`, the figure is 31 nM; as for `CC(C)(N)c1ccc(-c2ccc3[nH]ncc3c2-c2cnco2)cc1`, 2.6 nM.
The compound `NCc1ccc(-c2ccc3[nH]ncc3c2[N+](=O)[O-])cc1` registered a Ki of 55 nM.
The compound `CCC(N)(CC)c1ccc(-c2ccc3[nH]ncc3c2N(C)C)cc1` gave a Ki of 23 nM.
As for `CC(C)(N)c1ccc(-c2ccc3[nH]ncc3c2O)cc1`, the figure is 29 nM; as for `CN(C)c1c(-c2ccc(C3(N)CCCC3)cc2)ccc2[nH]ncc12`, 14 nM.
With `CCOc1c(-c2ccc(C(N)(CC)CC)cn2)ccc2[nH]ncc12`, the inhibition constant Ki stood at 35 nM.
The figure for `CC(C)(N)c1ccc(-c2ccc3[nH]ncc3c2CCO)nc1` is 234 nM; for `CC(C)(N)c1ccc(-c2ccc3[nH]ncc3c2-c2cn[nH]c2)cc1` it is 4.4 nM.
The figure for `COc1c(-c2ccc(C3(N)CCCC3)cn2)ccc2[nH]ncc12` is 27 nM; for `CC(C)(N)c1cnc(-c2ccc3[nH]ncc3c2)c(Cl)c1` it is 86 nM; for `CNc1c(-c2ccc(C(C)(C)N)cc2)ccc2[nH]ncc12` it is 15 nM.
The figure for `CCC(N)(CC)c1ccc(-c2ccc3[nH]ncc3c2OC(F)F)cc1` is 13 nM; for `CN(C)c1c(-c2ccc(CN)cc2)ccc2[nH]ncc12` it is 29 nM.
As for `CC(C)(N)c1ccc(-c2ccc3[nH]nc(N)c3c2)cc1`, the Ki was 144 nM.
As for `CC(C)(N)c1ccc(-c2ccc3[nH]ncc3c2N)cc1`, the figure is 44 nM.
The figure for `CC(C)(N)c1ccc(-c2ccc3[nH]ncc3c2OCCF)cc1` is 26 nM.
The figure for `CC(C)(N)c1ccc(-c2ccc3[nH]ncc3c2OCC2CC2)nc1` is 146 nM; for `CC(C)(N)c1ccc(-c2ccc3[nH]nc(C#N)c3c2)cc1` it is 103 nM.
`C=C(C)c1n[nH]c2ccc(-c3ccc(C(C)(C)N)cc3)cc12` had a Ki of 56 nM.
The figure for `CC(C)(N)c1ccc(-c2ccc3[nH]ncc3c2O)nc1` is 55 nM; for `COc1c(-c2ccc(C(C)(C)N)cc2)ccc2[nH]ncc12` it is 13 nM; for `CC(C)(N)c1ccc(-c2ccc3[nH]ncc3c2N2CCOCC2)cc1` it is 211 nM.
As for `CC(C)(N)c1ccc(-c2ccc3[nH]ncc3c2N2CCCCC2)cc1`, the figure is 14 nM.
As for `CCC(N)(CC)c1ccc(-c2ccc3[nH]ncc3c2OC2CC2)nc1`, the Ki was 34 nM.
As for `CC(C)(N)c1ccc(-c2ccc3[nH]ncc3c2-c2ccncc2)cc1`, the figure is 45 nM.
As for `COC(=O)c1n[nH]c2ccc(-c3ccc(C(C)(C)N)cc3)cc12`, the figure is 97 nM; as for `CC(C)(N)c1ccc(-c2ccc3[nH]nc(C(N)=O)c3c2)cc1`, 134 nM; as for `CCCCOc1c(-c2ccc(C(C)(C)N)cc2)ccc2[nH]ncc12`, 13 nM.
Regarding `CC(C)(N)c1ccc(-c2ccc3[nH]ncc3c2-c2ccccn2)cc1`, the Ki was determined as 241 nM.
The figure for `CCN(CC)c1c(-c2ccc(C(C)(C)N)cc2)ccc2[nH]ncc12` is 614 nM; for `CCC(N)(CC)c1ccc(-c2ccc3[nH]ncc3c2OC)nc1` it is 38 nM.
The figure for `CC(C)(N)c1ccc(-c2ccc3[nH]ncc3c2-c2ccno2)cc1` is 6.4 nM; for `Nc1c(-c2ccc(C3(N)CCCC3)cc2)ccc2[nH]ncc12` it is 26 nM; for `CC(C)(N)c1ccc(-c2ccc3[nH]ncc3c2[N+](=O)[O-])nc1` it is 199 nM.
As for `CN(C)c1c(-c2ccc(C(C)(C)N)cc2)ccc2[nH]ncc12`, the figure is 16 nM.
As for `CCc1c(-c2ccc(C(C)(C)N)cn2)ccc2[nH]ncc12`, the Ki was found to be 15 nM.
As for `CC(C)(N)c1ccc(-c2ccc3[nH]ncc3c2OC(F)F)nc1`, the figure is 6.9 nM.
Compound `CC(C)(N)c1ccc(-c2ccc3[nH]ncc3c2OC2CC2)nc1` had a Ki of 28 nM.
The figure for `CC(C)Oc1c(-c2ccc(C(C)(C)N)cn2)ccc2[nH]ncc12` is 84 nM; for `CC(C)(N)c1ccc(-c2ccc3[nH]nc(C=NO)c3c2)cc1` it is 7.5 nM.
As for `CC(C)(N)c1ccc(-c2ccc3[nH]ncc3c2-c2cccnc2)cc1`, the figure is 126 nM; as for `CC(C)(N)c1ccc(-c2ccc3[nH]ncc3c2-n2cccc2)cc1`, 12 nM.
In turn, `CC(C)(N)c1ccc(-c2ccc3[nH]ncc3c2)cc1` showed a Ki of 19 nM.
In turn, `CCCOc1c(-c2ccc(C(C)(C)N)cn2)ccc2[nH]ncc12` displayed a Ki of 39 nM.
As for `CCCOc1c(-c2ccc(C(C)(C)N)cc2)ccc2[nH]ncc12`, the inhibition constant Ki is 14 nM.
The figure for `CC(C)(N)c1ccc(-c2ccc3[nH]ncc3c2CO)cc1` is 139 nM; for `CC(C)(N)c1ccc(-c2ccc3[nH]ncc3c2NCc2ccccc2)cc1` it is 260 nM.
The figure for `C=Cc1c(-c2ccc(C(C)(C)N)cn2)ccc2[nH]ncc12` is 17 nM; for `CC(N)c1ccc(-c2ccc3[nH]ncc3c2N(C)C)cc1` (stereo not drawn) it is 27 nM.
As for `CC(C)(N)c1ccc(-c2ccc3[nH]ncc3c2C#N)cc1`, the figure is 35 nM; as for `CC(C)(N)c1ccc(-c2ccc3[nH]ncc3c2)nc1`, 20 nM.
For `CCOc1c(-c2ccc(C(C)(C)N)cn2)ccc2[nH]ncc12`, the Ki stood at 45 nM.
As for `CC(C)(N)c1ccc(-c2ccc3[nH]ncc3c2C2CC2)nc1`, the figure is 2.7 nM; as for `C=CCOc1c(-c2ccc(C(C)(C)N)cc2)ccc2[nH]ncc12`, 23 nM.

The record behind these values is the Kinase Knowledgebase extract (Sharma et al. 2016).
